Values of other authors, collected in patent publication US11350648B2, “Compositions and related methods for agriculture” (priority 2017, dated 2022).

Test system: gram-negative and gram-positive bacteria as well as fungi

In the case of “NCR335: cationic NCR peptide (RQMIILRLNTTFRPLNFKMLRFWGQN)”, the antimicrobial activity is listed as “effective against gram-negative and gram-positive bacteria as well as fungi”.
